Laboratory results from patent US10001470B2, “Method, system and composition for optically inducing cardiomyocyte contraction” (Sanford-Burnham Medical Research Institute, priority 2009, dated 2018).

Experiments:
[1] = system: Neonatal Rat Ventricular Myocytes (NRVMs); assay: Calcium transient (Tdecay) in single-pulse stimulated NRVMs, CTIC; type: cell-based; conditions: for Tdecay Mean / Tdecay Diff. (%) control vs compound / Tdecay Difference (ms) control vs compound: single pulse; for Tdecay Mean: average signal of three wells
Source text: (§1) A Calcium Transient Image Cytometer (CTIC) instrument and software have been developed at Vala Sciences to analyze calcium transient and other fluorescent read out in stimulated cardiomyocytes which is utilized in the Examples described herein. The instrument consists of a Nikon Eclipse™ microscope with a 20× objective, a Cohu 6612-3000 monochrome ½″ digital/analog progressive scan camera (which operates at 30 or 60 Hz), a Pentium™ 4-based PC, and a 200 gigabyte external “firewire” hard drive.
Platinum electrodes are mounted on a micromanipulator to stimulate cardiomyocytes cultured in a 96-well plate. The plate is placed, without a lid, on the stage of a robotic inverted microscope outfitted for fluorescence microscopy. The mechanical stage of the microscope moves to bring each well into position and the micromanipulator lowers to the pair of electrodes to bring them into contact with the culture medium of the well that is being analyzed. The voltage used to stimulate the cells is on the order of 20 to 30 volts, utilizing square wave pulses of 5 to 20 msec. A “polarity reverser” is included in the circuit to maintain electrode performance and effective stimulation of cardiac myocytes. FIG. 3 describes the prototype setting. After positioned on the well, the electrodes move to the “down” position, the instrument autofocuses on cells nuclei (blue channel), stimulates the cells (single stimulus or at 1 to 3 Hz for 3 to 10 seconds) and acquires the fluo-4 channel (green channel). Subsequently, the electrodes move to the “up” position and the instrument moves to another well, repeating the entire process. The time required to sample each well will range from 20 to 30 seconds, depending on the number of frames that are collected and the rate of stimulation.
The instrument is incorporated in a 37° C. chamber with CO2 and O2 percentage controllers, allowing the execution of experiment in approximate physiological conditions. The calcium analysis software, developed at Vala Sciences as a plug-in for Vala's CyteSeer High Content Analysis™ software, converts the fluo-4 and Hoechst 33342 fluorescence signals in a binary mask, to distinguish portions of the images corresponding to single cells. Then, comparing the images acquired during the stimulation, the software reports the calcium variation for the well or for every single cell and the average value for the well. Traces can be filtered to remove low responders or kinetics with specific characteristics.
A number of kinetic parameters can be automatically derived either for the nuclear, cytoplasm or the whole cell compartments: The Full Width at Half Maximum (FWHM), which is the time required for progression from the 50% point on the upstroke to 50% point on the downstroke, TRise, which is the time from 50% point to 100% on the upstroke, and the TDecay, which is the time period from 100% point to 50% point on the decay phase. Other values can be measured, including the time from 75% to 25% in the downstroke (T75-25) and the value at a particular time. Values are measured for single cells in the well and as average of the well.
The CTIC and calcium recording have been validated also for toxicity-related analysis. In one set of experiments, NRVMs are treated with either sparfloxacin or cisapride. The first one is a fluoroquinolone antibiotic no longer available in the U.S., known to induce QT interval prolongation at high dosage. The second one is a serotonin 5-HT4 receptor agonist, used to cure people with gastro esophageal reflux disease. […] This is a clear hallmark of compounds that predispose to arrhythmia and torsades de pointes.
Tdecay is indicated for the average signal of three control wells and three compound treated wells. The mean, standard deviation (SD) and percent error is calculated for each group. The difference between the control and the compound groups is also indicated.
FIGS. 5A and 5B show calcium transient in drug treated NRVMs. […]

[2] = system: Neonatal Rat Ventricular Myocytes (NRVMs); type: cell-based
Source text: as §1
Platinum electrodes are mounted on a micromanipulator to stimulate cardiomyocytes cultured in a 96-well plate. The plate is placed, without a lid, on the stage of a robotic inverted microscope outfitted for fluorescence microscopy. The mechanical stage of the microscope moves to bring each well into position and the micromanipulator lowers to the pair of electrodes to bring them into contact with the culture medium of the well that is being analyzed. […]
The instrument is incorporated in a 37° C. chamber with CO2 and O2 percentage controllers, allowing the execution of experiment in approximate physiological conditions. The calcium analysis software, developed at Vala Sciences as a plug-in for Vala's CyteSeer High Content Analysis™ software, converts the fluo-4 and Hoechst 33342 fluorescence signals in a binary mask, to distinguish portions of the images corresponding to single cells. […]

Cisapride
Early after depolarization (EAD) ([1]; 1 μM): causes early after depolarization (EAD)
Effect on Tdecay ([1]; 1 μM): induces an increase in Tdecay
Tdecay Mean ([1]; 1 μM in recording buffer): 2145 ms
Tdecay Diff. (%) control vs compound ([1]; 1 μM): +129%
Tdecay Difference (ms) control vs compound ([1]; 1 μM): +1210 ms

Sparfloxacin
Effect on Tdecay ([1]; 100 μM during the stimulation): clearly doubles the Tdecay
Tdecay Mean ([1]; 100 μM in recording buffer): 1969 ms
Tdecay Diff. (%) control vs compound ([1]; 100 μM): +106%
Tdecay Difference (ms) control vs compound ([1]; 100 μM): +1012 ms
Calcium flux response to continuous stimulation [2]: irregular calcium flux
